Key:
Mast cells (MC) = assay: Anti-FcεRI-induced GM-CSF cytokine production in MC; format: cell-based, human; details: maximum inhibition set to 100%
Protocol: MC are a component of the inflammatory response. As such, cultures of human Mast Cells can be used for screening the activity of different fullerene derivatives to evaluate their potential activity in animal models. In this example, human skin tissue was received from the Cooperative Human Tissue Network and MC purified and cultured as described in Kepley, C. L. Int. Arch. Allergy Immunol. 138, 29-39 (2005). The MC were cultured in media containing stem cell factor which is removed from the culture 24 hours prior to experimentation.
For activation, MC were suspended in fresh medium (without cytokines) and incubated for 16 hours with or without fullerene derivatives at 37° C. in a 6% CO2 incubator. […] The next morning, cells were washed and stimulated with anti-FcεRI Abs (3B4; 1 μg/ml) for 30 minutes (β-hexosaminidase) or overnight (GM-CSF) at 37° C. in a 6% CO2 incubator and mediator release measured as described in Zhao, W., Kepley, C. […]
Cells were cultured with fixed concentrations of a fullerene derivative (10 μg/ml; FIGS. 8A and 9A) or different concentrations (FIGS. 8B and 9B) for 16 h, washed and stimulated for 30 min (FIGS. 8A and 8B) or 24 hours (FIGS. 9A and 9B) with optimal concentrations of αanti-FcεRI Abs (3B4; 1 μg/ml). Cells were centrifuged and β-hexosaminidase release and GMCSF levels determined by ELISA.

FcεRI activated genes = assay: Gene microarray of FcεRI-activated MC; format: cell-based, human
Protocol: (§1) Mast cells (1×10^7 cell/condition; each condition performed in triplicate) were incubated with or without fullerene derivatives as above and incubated with or without anti-FcεRI antibodies for 10 minutes, supernatants were removed (to remove pre-formed mediators), and fresh warm medium containing anti-FcεRI antibodies (14 ml) added for 2 hours. Cells were centrifuged, the supernatant and the pellet immediately frozen and microarray performed using the Human Whole Genome OneArray™ gene expression profiling service (Phalanx Biotech Group). Separate samples, assayed in parallel were lysed and protein expression analyzed by Western blotting or flow cytometry (CD45) as described in Kepley, C. L., Pfeiffer, J., Wilson, B. W., Schwartz, L. B., and Oliver, J. M. J. Leukocyte Biol. 64, 474-483 (1998).
For microarray RNA was isolated using the Ambion MessageAmp aRNA kit; all samples passed the internal quality control checks. For hybridization each sample was run in triplicate. Optical density was measured by NanoDrop ND-1000. The ratio of absorbance at 260 nm and 280 nm provides an estimate of RNA purity. […] The reactive amino group of 5-(3-aminoallyl)-UTP/5-(3-aminoallyl)-dUTP was used to conjugate the purified aRNA/cDNA with the NHS-CyDye. Labeling efficiency was calculated by the concentration of CyDye and aRNA/cDNA which was above 10. For hybridization 10 μg Cy5-labeled aRNA was utilized by the Phalanx Hybridization Protocol Array Version HOA 4.3.
Pearson correlation tables (R values) for each technical repeat were calculated from raw log 2 intensity (R) and normalized log 2 intensity (N) values and compared to each other. Only probes with P value (detected) less than 0.05 were included in the calculation. […] Greater than 95% of the samples had R values of 0.8 or greater indicating strong correlation between the two parameters.
(§2) In order to examine the genes most affected by fullerene derivative preincubation the resulting values were sorted and filtered the following way. First, the mean (±SD) of the six values from each condition for each of the 30,970 genes was calculated. […]

mice = assay: In vivo administration of TGA for three weeks: behavior, gross pathology; details: i.v. daily; 200 ng/three weeks
Description: Taken together, the derivatives described herein are not cytotoxic to several cell lines tested and appear to have no acute in vivo cytotoxic effects.

Lyn = Lyn gene (microarray) and protein (Western blotting) expression in MC; format: cell-based, human
Protocol: as §1, with “and fresh warm medium containing anti-FcεRI antibodies (14 ml) added for 2 hours.” left out
as §2, with “calculated. Second, only normalized value intensities of >100 were included so that follow up detection of protein levels would be more likely to be successful.” for “calculated.”

MC-induced anaphylaxis = assay: MC-dependent anaphylaxis model: core body temperature; format: in vivo, mice (C57BL/6J); details: 100 ng i.p. before DNP-BSA challenge
[1] = test system: Peripheral blood basophils (PBB); assay: Anti-IgE-induced histamine release (degranulation) from PBB; format: cell-based, human
Protocol: PBB were obtained from two sources: donors recruited under an IRB-approved protocol after informed consent or from leukopheresis packs obtained from the Johns Hopkins Hemapheresis Center. PBB were purified to ≧99% purity as described in Vonakis, B. M., Gibbons S Jr, Sora, R., Langdon, J. M., and MacDonald, S. M. J. Allergy Clin. Immunol. 108, 822-831 (2001), and Miura, K., Saini, S. S., Gauvreau, G., and MacGlashan, D. W., Jr. J. Immunol. 167, 2282-2291 (2001). Purified PBB were incubated overnight (20 hours) with a fullerene derivative (5 μg/ml) or vehicle control and a minimal (non-stimulatory) concentration of IL-3 (2 pg/ml) to prevent apoptosis. The next day, cells were washed and aliquoted for the histamine release assay by treatment with 0.1 mg/ml of goat polyclonal anti-IgE, buffer alone (spontaneous release) or perchloric acid (total histamine determination). Histamine was quantified in cell free supernatants using automated fluorimetry in duplicate. In a second set of experiments the two fullerene derivatives (at 5 μg/ml) were incubated with PBB for 20 hours, washed cells stimulated with 15 ng/ml anti-IgE for 18 hours in duplicate and supernatants collected for quantification of IL-13 by in-house ELISA. The optimal doses of anti-IgE are chosen for activation of PBB.

- IC50 (GMCSF-cytokine production) (Mast cells (MC)): 3.3 (±0.6) μg/ml
- behavior (mice): no notable differences in behavior
- gross pathological examination (mice): no abnormalities
- IC50 (degranulation) ([1]; PBB, maximum inhibition set to 100%): 9.9 µg/mL
Substance: C70-tetraglycolic acid [TGA]
- genes whose FcεRI-induced activation was reduced (FcεRI activated genes): over 1000
- genes decreased at least 20% compared to non treated cells (FcεRI activated genes; 2 hours FcεRI activation): 2,603
- genes with greater than 50% inhibition (FcεRI activated genes; 2 hours FcεRI activation): 515
- Lyn gene expression levels reduced (Lyn; at 2 hours): 51%
- Lyn inhibition at the protein level (Lyn; at 6 hours): 92%
- anaphylactic-induced drop in core body temperature (MC-induced anaphylaxis): significant reduction
- Mean % Inhibition of Histamine Release ([1]; 5 μg/ml FD vs vehicle control, listed as C70-TGA): 15.8%
- FD + anti-IgE (mean ± SEM), histamine release ([1]; 5 μg/ml FD, 20 hours, anti-IgE): 39.4 ± 2.3
- maximal inhibition of anti-IgE-induced histamine release ([1]; 50 µg/mL dose, mean±SEM, n=2-3): 37.8±16.25%
